For eleven compounds, Activity results are on record in ChEMBL document CHEMBL3272354, “Antifilarial agents. 1,2-Cyclobutanediamines as analogues of diethylcarbamazine. Status of structure-activity relationships among diethylcarbamazine analogues” (1977).

What all share (format): functional
Test [1] has as its system Litomosoides carinii. As to the kind of experiment: Antifilarial activity against Litomosoides carinii infected in gerbil assessed as microfilaria count at 25, 50, 100 and 200 mg/kg administered on days 0, 1, 2 and 3 respectively measured on day 9 relative to control.
In test [2] the test system is Litomosoides carinii. As to the kind of experiment: Antifilarial activity against Litomosoides carinii infected in gerbil assessed as microfilaria count at 25, 50, 100 and 200 mg/kg administered on days 0, 1, 2 and 3 respectively measured on day 1 relative to control.
For test [3], the system named is Litomosoides carinii. The experiment in a line: Antifilarial activity against Litomosoides carinii infected in gerbil assessed as microfilaria count at 25, 50, 100 and 200 mg/kg administered on days 0, 1, 2 and 3 respectively measured on day 3 relative to control.
The test system of test [4] is Litomosoides carinii. As to the kind of experiment: Antifilarial activity against Litomosoides carinii infected in gerbil assessed as microfilaria count at 25, 50, 100 and 200 mg/kg administered on days 0, 1, 2 and 3 respectively measured on day 14 relative to control.
In test [5] the test system is Litomosoides carinii. As to the kind of experiment: Antifilarial activity against Litomosoides carinii infected in gerbil assessed as microfilaria count at 25, 50, 100 and 200 mg/kg administered on days 0, 1, 2 and 3 respectively measured on day 7 relative to control.
Test [6] has as its system Litomosoides carinii. The experiment in a line: In vivo antifilarial activity against Litomosoides carinii.
Test [7] deals with Litomosoides carinii. As to the kind of experiment: Antifilarial activity against Litomosoides carinii infected in gerbil assessed as microfilaria count at 25, 50, 100 and 200 mg/kg administered on days 0, 1, 2 and 3 respectively measured on day 10 relative to control.
In test [8] the test system is Litomosoides carinii. As to the kind of experiment: Antifilarial activity against Litomosoides carinii infected in cotton rat assessed as reduction of microfilaria relative to control. Further details: scale not given: the % may be the effect or the level left.
Test [9] deals with Litomosoides carinii. As to the kind of experiment: Antifilarial activity against Litomosoides carinii infected in gerbil assessed as microfilaria count at 25, 50, 100 and 200 mg/kg administered on days 0, 1, 2 and 3 respectively measured on day 11 relative to control.
In test [10] the test system is Litomosoides carinii. The experiment in a line: Antifilarial activity against Litomosoides carinii infected in natal multimammate rat assessed as reduction of microfilaria relative to control. Further details: scale not given: the % may be the effect or the level left.

Turning to `CCOC(=O)N[C@H]1CC[C@@H]1NC.Cl`, the Activity in the test on Litomosoides carinii [1] is 99%; with Litomosoides carinii [2] it was 101%; in the test on Litomosoides carinii [3] it was 113%; in the test with Litomosoides carinii [4], 151%; in the test with Litomosoides carinii [5] it was 122%.

In the test on Litomosoides carinii [6], `CCN(CC)C(=O)N1CCCN(C)CC1` gave an Activity of 1%.

Consider `CCOC(=O)N[C@H]1CC[C@H]1N(C)C.O=C(O)/C=C\C(=O)O` (relative stereo), for which the Activity in the test with Litomosoides carinii [1] turned out to be 154%; in the test with Litomosoides carinii [2], 127%; in the test with Litomosoides carinii [3], 59%; in the test on Litomosoides carinii [4], 199%; with Litomosoides carinii [5], 169%.

For `CCOC(=O)N[C@H]1CC[C@@H]1N.Cl` (relative stereo), the Activity with Litomosoides carinii [2] stood at 107%; in the test on Litomosoides carinii [7] it was 182%; with Litomosoides carinii [3], 163%; in the test on Litomosoides carinii [4] it was 153%; with Litomosoides carinii [5], 148%.

In the case of `CCOC(=O)N[C@H]1CC[C@@H]1NC(=O)OCC` (relative stereo), the Activity with Litomosoides carinii [1] came out at 240%; with Litomosoides carinii [2], 189%; in the test on Litomosoides carinii [3], 236%; in the test with Litomosoides carinii [4], 208%; in the test with Litomosoides carinii [5], 201%.

Regarding `CCOC(=O)N(C)[C@H]1CC[C@@H]1NC.O=C(O)/C=C\C(=O)O` (relative stereo), the Activity with Litomosoides carinii [1] amounted to 95%; with Litomosoides carinii [2] it was 150%; in the test with Litomosoides carinii [3] it was 160%; in the test with Litomosoides carinii [4], 165%; with Litomosoides carinii [5] it was 150%.

Consider `CCOC(=O)N[C@H]1CC[C@@H]1N(C)C.O=C(O)/C=C\C(=O)O` (relative stereo), for which the Activity came out at 133% in the test with Litomosoides carinii [1]; 96% with Litomosoides carinii [2]; 190% in the test with Litomosoides carinii [3]; 213% in the test with Litomosoides carinii [4]; 158% in the test with Litomosoides carinii [5].

In the case of `CCN(CC)C(=O)N[C@H]1CC[C@@H]1N(C)C.O=C(O)CC(O)(CC(=O)O)C(=O)O` (relative stereo), the Activity is 137% with Litomosoides carinii [1]; 106% in the test with Litomosoides carinii [2]; 113% in the test with Litomosoides carinii [3]; 161% in the test with Litomosoides carinii [4]; 111% with Litomosoides carinii [5].

As for `CCN(CC)C(=O)N(C)[C@H]1CC[C@@H]1N(C)C.O=C(O)/C=C\C(=O)O` (relative stereo), the Activity with Litomosoides carinii [1] is reported as 159%; in the test with Litomosoides carinii [2] it was 185%; in the test on Litomosoides carinii [3] it was 99%; in the test on Litomosoides carinii [4] it was 100%; with Litomosoides carinii [5] it was 174%.

Take `CCN(CC)C(=O)N1CCN(C)CC1` [DIETHYLCARBAMAZINE]: the Activity with Litomosoides carinii [8] turned out to be 1%; in the test on Litomosoides carinii [1], 29%; in the test on Litomosoides carinii [9] it was 43%; in the test with Litomosoides carinii [2], 6%; with Litomosoides carinii [3], 0.1%.

Regarding `CN1CCN(C(=O)C2CCCCC2)CC1` [PEXANTEL], the Activity in the test on Litomosoides carinii [10] is reported as 1%.
